In data set [1] the target is T1, human nicotinic acetylcholine receptor subtype α4β2 (Homo sapiens, UniProt P17787+P43681).
T1 construct: expressed in transfected cells
Description: FLIPR nAChR α4β2 positive allosteric modulator activity. It is filed as cell-based. The note with it: HEK-293 cells stably expressing hα4β2; for Efficacy Response relative to Nicotine (%): maximal positively modulated response relative to maximal nicotine response (100 μM); for EC50: positive modulation of response to sub-maximal nicotine (EC20-30), peak values. As to the method: Characterization of hα4β2 Positive Allosteric Modulators Using FLIPR
The ability is determined relative to a maximal nicotine response (100 μM). The activity is determined as a fluorescence-based assay using a Fluorometric Imaging Plate Reader (FLIPR) as described below in more detail.
Full concentration/response curves are generated and EC50 values are calculated based on peak values. EC50 values (Effective Concentration) represent the concentration of the test substance, at which the nicotine-induced EC20-30 response is positively modulated such that the size of the response equals 50% of the maximal response. The maximal positively modulated response (efficacy) is determined relative to the reference (nicotine) response.

Data on 4 molecules can be found in patent publication US20100029685A1 (NeuroSearch A/S, priority 2006, published 2010).

T1 sequence (P43681 29-627 limits assumed): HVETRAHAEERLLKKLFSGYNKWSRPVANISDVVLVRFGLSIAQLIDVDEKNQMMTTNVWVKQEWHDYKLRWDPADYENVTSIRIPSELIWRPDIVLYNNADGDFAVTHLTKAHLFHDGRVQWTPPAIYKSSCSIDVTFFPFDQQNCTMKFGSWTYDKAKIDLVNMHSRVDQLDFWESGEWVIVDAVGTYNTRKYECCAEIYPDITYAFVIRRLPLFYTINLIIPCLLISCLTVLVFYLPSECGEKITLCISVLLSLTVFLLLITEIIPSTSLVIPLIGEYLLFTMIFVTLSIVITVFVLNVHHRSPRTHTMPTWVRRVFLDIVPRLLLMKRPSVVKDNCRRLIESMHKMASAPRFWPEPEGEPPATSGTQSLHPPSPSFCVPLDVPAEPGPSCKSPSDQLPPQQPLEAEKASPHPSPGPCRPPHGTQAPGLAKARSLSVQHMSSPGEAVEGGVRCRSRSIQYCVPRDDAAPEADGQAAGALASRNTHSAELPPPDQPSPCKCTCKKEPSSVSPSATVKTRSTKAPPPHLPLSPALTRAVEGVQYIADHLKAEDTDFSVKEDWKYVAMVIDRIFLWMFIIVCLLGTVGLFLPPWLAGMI
T1 sequence (P17787 26-502): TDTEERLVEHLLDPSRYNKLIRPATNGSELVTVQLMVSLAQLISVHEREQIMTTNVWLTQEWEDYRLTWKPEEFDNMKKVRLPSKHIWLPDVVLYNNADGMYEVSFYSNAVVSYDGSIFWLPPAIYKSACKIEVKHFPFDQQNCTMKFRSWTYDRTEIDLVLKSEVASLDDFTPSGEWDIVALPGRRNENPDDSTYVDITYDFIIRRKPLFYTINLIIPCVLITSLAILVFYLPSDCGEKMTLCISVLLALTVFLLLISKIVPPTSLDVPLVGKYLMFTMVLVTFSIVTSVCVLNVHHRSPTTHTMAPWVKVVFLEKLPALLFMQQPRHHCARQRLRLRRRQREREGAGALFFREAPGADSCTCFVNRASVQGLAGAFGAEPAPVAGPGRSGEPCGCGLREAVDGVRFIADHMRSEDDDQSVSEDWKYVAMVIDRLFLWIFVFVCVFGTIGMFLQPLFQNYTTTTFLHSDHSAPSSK

One may read the melting point as the temperature of the solid-liquid transition. `O=[N+]([O-])c1ccc(-c2nnc(-c3cccnc3)o2)o1` [Compound 7.2, 3-(5-{5-Nitro-furan-2-yl}-[1,3,4]oxadiazol-2-yl)-pyridine] registered a melting point of 165 to 168 °C.

Turning to `N#Cc1cccc(-c2nnc(-c3cccc(C#N)c3)s2)c1` [Compound 8.2, 3-(5-{3-Cyano-phenyl}-[1,3,4]thiadiazol-2-yl)-benzonitrile], the melting point fell in the range of 217 to 223 °C.

One may read the EC50 as the midpoint of the concentration-response curve. A higher EC50 goes with a need for much substance. With `N#Cc1cccc(-c2nnc(-c3cccnc3)o2)c1` [Compound 7.1, 3-(5-Pyridine-3-yl-[1,3,4]oxadiazol-2-yl)-benzonitrile], in data set [1], the “Efficacy Response relative to Nicotine (%)” value is 133% and the EC50 amounted to 520 nM.

`N#Cc1ccc(-c2nnc(-c3cccnc3)o2)s1` [Compound 7.6]: in data set [1], the “Efficacy Response relative to Nicotine (%)” value is 153% and the EC50 was 980 nM.
